Experimental data taken from patent US20050239656A1, “Pyridine compounds or salts thereof and herbicides containing the same” (priority 2002, published 2005).

Tests used:
[1] = system: barnyardgrass; assay: Test Example 3: paddy pot test, application under submerged conditions; format: in vivo, Echinochloa crus-galli L.; conditions: submerged application at 0.5 leaf stage, visually observed 14 days after application, 0 = non-treated, 100 = complete kill
Source text: (§1) Paddy field soil was put into a 1/1,000,000 ha pot, and seed of barnyardgrass and japanese bulrush were sown and slightly covered with soil. Then, the pot was left to stand still in a greenhouse in a state where the depth of flooding water was from 0.5 to 1 cm, and one day or two days later, tubers of japanese ribbon wapato were planted. Thereafter, the depth of flooding water was maintained at a level of from 3 to 4 cm, and when barnyardgrass and japanese bulrush reached a 0.5 leaf stage and japanese ribbon wapato reached a primary leaf stage, an aqueous diluted solution of a wettable powder or emulsifiable concentrate having the compound of the present invention formulated in accordance with a usual formulation method, was uniformly applied under submerged conditions by a pipette so that the dose of the active ingredient would be at a predetermined level. On the 14 days after the application of the herbicide, the growth of barnyard grass, japanese burlrush and japanese ribbon wapato was visually observed and on the 21st day after the application of the herbicide, the growth of rice was visually observed, and the herbicidal effects were evaluated by the growth-controlling degrees (%) ranging from 0 (equivalent to the non-treated plot) to 100 (complete kill), whereby the results shown in Table 5 were obtained.

[2] = system: japanese bulrush; assay: as above; format: in vivo, Scirpus juncoides; conditions: submerged application at 0.5 leaf stage, visually observed 14 days after application, 0 = non-treated, 100 = complete kill
Source text: as §1

[3] = system: rice (var. Nihonbare); assay: Test Example 3: paddy pot test, transplanted rice; format: in vivo, Oryza sativa L.; conditions: applied 4th day after transplantation, visually observed 21st day after application, 0 = non-treated, 100 = complete kill
Source text: as §1, with “On the other hand, paddy field soil was put into a 1/1,000,000 ha pot and puddled and leveled, and the depth of flooding water was from 3 to 4 cm. Next day, rice (var. Nihonbare) of 2 leaf stage was transplanted in a depth of 3 cm. On the 4th day after the transplantation, the compound of the present invention was applied in the same manner as described above. On the 14 days” for “On the 14 days”

[4] = system: japanese ribbon wapato; assay: Test Example 3: paddy pot test, application under submerged conditions; format: in vivo, Sagittaria pygniaea; conditions: submerged application at primary leaf stage, visually observed 14 days after application, 0 = non-treated, 100 = complete kill
Source text: as §1

Row | SMILES | Growth controlling degree (%) Barnyardgrass ([1]; active ingredient 250 g/ha) | Growth controlling degree (%) Japanese bulrush ([2]; active ingredient 250 g/ha) | Growth controlling degree (%) Rice ([3]; active ingredient 250 g/ha) | Growth controlling degree (%) Barnyardgrass ([1]; active ingredient 500 g/ha) | Growth controlling degree (%) Japanese bulrush ([2]; active ingredient 500 g/ha) | Growth controlling degree (%) Rice ([3]; active ingredient 500 g/ha) | other results
1 | CC(Oc1ccc(F)cc1F)C(=O)N(C)C(c1cnccc1C(F)(F)F)C(C)C (mixture of isomers) [I-138] | 98% | 100% | 10% | – | – | – | –
2 | CC(Oc1ccc(Cl)cc1)C(=O)N(C)C(c1cnccc1C(F)(F)F)C(C)C (mixture of isomers) [I-139] | 98% | 98% | 10% | – | – | – | –
3 | CC(Sc1ccccc1)C(=O)N(C)C(c1cnccc1C(F)(F)F)C(C)C (mixture of isomers) [I-140] | 98% | 98% | 0% | – | – | – | –
4 | CC(Sc1ccc(Cl)cc1)C(=O)N(C)C(c1cnccc1C(F)(F)F)C(C)C (mixture of isomers) [I-141] | 100% | 98% | 20% | – | – | – | –
5 | CC(C)C(c1cnccc1Br)N(C)C(=O)Cc1ccccc1 (racemic) [I-110] | 98% | 90% | 0% | – | – | – | Growth controlling degree (%) Japanese ribbon wapato ([4]; active ingredient 250 g/ha): 20%
6 | CC(C)C(c1cnccc1C(F)(F)F)N(C)C(=O)OCc1ccccc1 (racemic) [I-111] | 90% | 10% | 0% | – | – | – | –
7 | CC(C)C(NC(=O)c1ccccc1)c1cnccc1C(F)(F)F (racemic) [I-115] | – | – | – | 70% | 40% | 20% | Growth controlling degree (%) Japanese ribbon wapato ([4]; active ingredient 500 g/ha): 20%
8 | Cc1cc(F)ccc1CC(=O)N(C)C(c1cnccc1C(F)(F)F)C(C)C (racemic) [I-116] | – | – | – | 100% | 95% | 10% | Growth controlling degree (%) Japanese ribbon wapato ([4]; active ingredient 500 g/ha): 50%
9 | CC(C)C(c1ccc(C(F)(F)F)nc1)N(C)C(=O)Cc1ccccc1 (racemic) [I-123] | – | – | – | 70% | 10% | 10% | –
10 | CC(C)C(NC(=O)Cc1ccc(C(F)(F)F)cc1)c1cnccc1C(F)(F)F (centres unmarked) [I-7] | – | – | – | 95% | 70% | 20% | Growth controlling degree (%) Japanese ribbon wapato ([4]; active ingredient 500 g/ha): 0%
11 | CC(C)C(c1cnccc1C(F)(F)F)N(C)C(=O)Cc1ccc(-c2ccccc2)cc1 (centres unmarked) [I-9] | – | – | – | 100% | 10% | 0% | Growth controlling degree (%) Japanese ribbon wapato ([4]; active ingredient 500 g/ha): 30%
12 | CCN(C(=O)Cc1ccccc1)C(c1cnccc1C(F)(F)F)C(C)C (centres unmarked) [I-24] | – | – | – | – | 95% | 40% | Growth controlling degree (%) Japanese ribbon wapato ([4]; active ingredient 500 g/ha): 100%
13 | COc1ccccc1CC(=O)N(C)C(c1cnccc1C(F)(F)F)C(C)C (centres unmarked) [I-35] | 100% | 95% | 0% | – | – | – | Growth controlling degree (%) Japanese ribbon wapato ([4]; active ingredient 250 g/ha): 70%
14 | CSc1ccc(CC(=O)N(C)C(c2cnccc2C(F)(F)F)C(C)C)cc1 (centres unmarked) [I-37] | 100% | 50% | 0% | – | – | – | Growth controlling degree (%) Japanese ribbon wapato ([4]; active ingredient 250 g/ha): 10%
15 | CCCC(=O)NC(c1cnccc1C(F)(F)F)c1cccc2ccccc12 (centres unmarked) [I-49] | – | – | – | 90% | 85% | 10% | –
16 | CCCC(=O)N(C)C(c1cnccc1C(F)(F)F)c1cccc2ccccc12 (centres unmarked) [I-50] | – | – | – | 95% | 95% | 10% | –

Row | SMILES | Growth controlling degree (%) Barnyardgrass ([1]; active ingredient 250 g/ha) | Growth controlling degree (%) Japanese bulrush ([2]; active ingredient 250 g/ha) | Growth controlling degree (%) Rice ([3]; active ingredient 250 g/ha) | Growth controlling degree (%) Barnyardgrass ([1]; active ingredient 500 g/ha) | Growth controlling degree (%) Japanese bulrush ([2]; active ingredient 500 g/ha) | Growth controlling degree (%) Rice ([3]; active ingredient 500 g/ha) | other results
17 | CC(C)C(c1cnccc1C(F)(F)F)N(C)C(=O)Cc1cccc2ccccc12 (centres unmarked) [I-56] | – | – | – | 95% | 70% | 20% | Growth controlling degree (%) Japanese ribbon wapato ([4]; active ingredient 500 g/ha): 90%
18 | CC(C)C(c1cnccc1C(F)(F)F)N(C)C(=O)Cc1ccc2ccccc2c1 (centres unmarked) [I-58] | – | – | – | 100% | 40% | 35% | Growth controlling degree (%) Japanese ribbon wapato ([4]; active ingredient 500 g/ha): 0%
19 | CC(C)C(c1cnccc1Cl)N(C)C(=O)Cc1ccc2ccccc2c1 (centres unmarked) [I-59] | – | – | – | 90% | 10% | 10% | Growth controlling degree (%) Japanese ribbon wapato ([4]; active ingredient 500 g/ha): 60%
20 | CC(C)C(c1cnccc1Cl)N(C)C(=O)Cc1ccc(F)cc1F (centres unmarked) [I-71] | – | – | – | – | – | – | Growth controlling degree (%) Barnyardgrass ([1]; active ingredient 125 g/ha): 90%; Growth controlling degree (%) Japanese bulrush ([2]; active ingredient 125 g/ha): 90%; Growth controlling degree (%) Rice ([3]; active ingredient 125 g/ha): 0%; Growth controlling degree (%) Japanese ribbon wapato ([4]; active ingredient 125 g/ha): 40%
21 | CCN(C(=O)Cc1cccc(F)c1F)C(c1cnccc1C(F)(F)F)C(C)C (centres unmarked) [I-77] | 98% | 95% | 0% | – | – | – | Growth controlling degree (%) Japanese ribbon wapato ([4]; active ingredient 250 g/ha): 40%
22 | CCN(C(=O)Cc1ccccc1F)C(c1cnccc1C(F)(F)F)C(C)C (centres unmarked) [I-78] | 100% | 70% | 20% | – | – | – | Growth controlling degree (%) Japanese ribbon wapato ([4]; active ingredient 250 g/ha): 40%
23 | CC(C)C(c1cnccc1Cl)N(C)C(=O)Cc1ccc(Cl)c(Cl)c1 (centres unmarked) [I-80] | 98% | 90% | 20% | – | – | – | Growth controlling degree (%) Japanese ribbon wapato ([4]; active ingredient 250 g/ha): 20%
24 | Cc1ccccc1CC(=O)N(C)C(c1cnccc1Cl)C(C)C (centres unmarked) [I-83] | 98% | 98% | 10% | – | – | – | Growth controlling degree (%) Japanese ribbon wapato ([4]; active ingredient 250 g/ha): 20%
25 | Cc1cccc(CC(=O)N(C)C(c2cnccc2Cl)C(C)C)c1 (centres unmarked) [I-88] | 100% | 70% | 0% | – | – | – | Growth controlling degree (%) Japanese ribbon wapato ([4]; active ingredient 250 g/ha): 50%
26 | CC(C)C(c1cnccc1Cl)N(C)C(=O)Cc1c(F)ccc(F)c1F (centres unmarked) [I-89] | 100% | 95% | 0% | – | – | – | Growth controlling degree (%) Japanese ribbon wapato ([4]; active ingredient 250 g/ha): 40%
27 | CC(C)C(c1cnccc1C(F)(F)F)N(C)S(=O)(=O)C=Cc1ccc(Cl)cc1 (centres unmarked) [I-142] | 100% | 60% | 10% | – | – | – | –
28 | CC(C)C(c1cnccc1C(F)(F)F)N(C)C(=O)C(F)(F)c1ccccc1 (centres unmarked) [I-143] | 98% | 98% | 10% | – | – | – | –
29 | COc1ccc(S(=O)(=O)N(C)C(c2cnccc2C(F)(F)F)C(C)C)cc1 (centres unmarked) [I-144] | 100% | 98% | 20% | – | – | – | –
30 | CC(C)C(c1cnccc1C(F)(F)F)N(C)S(=O)(=O)c1ccc(C(C)(C)C)cc1 (centres unmarked) [I-145] | 100% | 0% | 20% | – | – | – | –
31 | C=CCCC(=O)N(C)C(c1cnccc1C(F)(F)F)C(C)C (centres unmarked) [I-211] | 100% | 98% | 50% | – | – | – | –
